Measurements: publication PMC4187893, “Biochemical and Antiparasitic Properties of Inhibitors of the Plasmodium falciparum Calcium-Dependent Protein Kinase PfCDPK1” (Antimicrobial Agents and Chemotherapy, 2014)
Like-named read-outs stand apart in the source and are kept apart here.

Assays:
PfCDPK1 [1] = target: T1, PfCDPK1 (Plasmodium falciparum, UniProt P62344); conditions: absence of MTIP; for IC50: mean (SD), n = 2
PvCDPK1 = PvCDPK1 (Plasmodium vivax, UniProt A5KBU9); experiment: Rh-ParM ADP sensor IC50 assay, PvCDPK1; conditions: for IC50: read-out: IC50 PvCDPK1, Rh-ParM, absence of MTIP, mean (SD)
PbCDPK1 = PbCDPK1 (Plasmodium berghei, UniProt A0A509AHB6); experiment: Rh-ParM ADP sensor IC50 assay, PbCDPK1; conditions: for IC50: read-out: IC50 PbCDPK1, Rh-ParM, absence of MTIP, ATP at Km, mean (SD), n = 2
PfCDPK1 [2] = target: T1, PfCDPK1; experiment: Radiometric assay, incorporation of 33P into MTIP; conditions: for IC50 ratio (ATP depletion/radiometric assay): Kinase-Glo Plus IC50 / radiometric IC50; for IC50: read-out: IC50 Radiometric assay, ATP and MTIP at their respective Km values
PfCDPK1 [3] = target: T1, PfCDPK1; experiment: Kinase-Glo Plus ATP depletion assay; conditions: read-out: IC50 ATP depletion, ATP and MTIP at their respective Km values
[4] = set-up: method as in PMID 24689770; conditions: cited from earlier work
P. falciparum 3D7 = experiment: FACS assay for parasite growth; conditions: Plasmodium falciparum, 3D7, 48 h, read-out: mean EC50, positive controls in parasite growth assay
[5] = read-out: IC50 PfCDPK1, Rh-ParM, ATP at Km
[6] = read-out: IC50 With 30 μM ATP, 30 μM ATP, Rh-ParM ADP detection
[7] = read-out: IC50 With 1 mM ATP, 1 mM ATP, Rh-ParM ADP detection

T1 sequence (P62344 whole entry): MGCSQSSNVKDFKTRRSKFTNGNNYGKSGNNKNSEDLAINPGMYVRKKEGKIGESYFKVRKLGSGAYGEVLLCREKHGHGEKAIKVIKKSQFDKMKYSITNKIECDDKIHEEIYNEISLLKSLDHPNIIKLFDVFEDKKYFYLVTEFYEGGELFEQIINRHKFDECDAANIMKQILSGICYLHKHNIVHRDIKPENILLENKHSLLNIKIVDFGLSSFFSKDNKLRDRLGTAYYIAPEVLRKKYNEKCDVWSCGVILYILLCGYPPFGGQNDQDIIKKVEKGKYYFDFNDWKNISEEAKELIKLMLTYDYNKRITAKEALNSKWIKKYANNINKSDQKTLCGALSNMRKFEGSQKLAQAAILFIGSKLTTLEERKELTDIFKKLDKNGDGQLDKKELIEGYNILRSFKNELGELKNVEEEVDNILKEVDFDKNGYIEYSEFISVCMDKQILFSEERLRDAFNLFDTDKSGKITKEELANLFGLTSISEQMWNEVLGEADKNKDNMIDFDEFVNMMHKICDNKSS
Chain of PvCDPK1 (A5KBU9 entry or part of it): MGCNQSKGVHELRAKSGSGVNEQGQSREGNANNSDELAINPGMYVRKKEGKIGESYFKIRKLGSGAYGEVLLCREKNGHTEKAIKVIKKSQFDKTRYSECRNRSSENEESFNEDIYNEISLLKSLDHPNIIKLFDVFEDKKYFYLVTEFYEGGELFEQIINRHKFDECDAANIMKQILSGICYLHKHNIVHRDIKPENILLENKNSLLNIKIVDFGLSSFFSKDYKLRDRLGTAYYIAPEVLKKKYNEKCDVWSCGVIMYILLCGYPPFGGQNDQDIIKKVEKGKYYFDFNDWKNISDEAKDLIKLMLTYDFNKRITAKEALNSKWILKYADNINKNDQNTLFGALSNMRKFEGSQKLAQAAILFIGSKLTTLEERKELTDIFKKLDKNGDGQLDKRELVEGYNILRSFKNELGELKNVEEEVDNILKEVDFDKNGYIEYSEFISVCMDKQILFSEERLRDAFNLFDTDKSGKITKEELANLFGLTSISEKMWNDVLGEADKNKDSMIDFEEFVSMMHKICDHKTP
Chain of PbCDPK1 (A0A509AHB6 whole entry): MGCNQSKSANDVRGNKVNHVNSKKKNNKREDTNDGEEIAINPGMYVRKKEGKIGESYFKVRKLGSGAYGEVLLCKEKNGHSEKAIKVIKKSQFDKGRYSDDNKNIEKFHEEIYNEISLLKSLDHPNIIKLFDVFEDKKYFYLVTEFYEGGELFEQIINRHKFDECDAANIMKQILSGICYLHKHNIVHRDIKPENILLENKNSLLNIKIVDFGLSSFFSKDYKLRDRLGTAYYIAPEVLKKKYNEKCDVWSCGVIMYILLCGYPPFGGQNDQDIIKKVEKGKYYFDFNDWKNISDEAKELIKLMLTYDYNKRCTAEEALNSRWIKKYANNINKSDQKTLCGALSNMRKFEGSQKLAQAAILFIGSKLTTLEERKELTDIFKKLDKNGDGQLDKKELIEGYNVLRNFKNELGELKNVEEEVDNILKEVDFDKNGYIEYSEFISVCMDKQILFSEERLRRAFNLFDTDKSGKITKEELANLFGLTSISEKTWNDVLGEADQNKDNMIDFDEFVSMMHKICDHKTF

Row | Compound | IC50 (PfCDPK1 [1]; [5]) [nM] | IC50 ratio PvCDPK1/PfCDPK1 (PvCDPK1) | IC50 (PvCDPK1; ATP at Km, n = 2) [nM] | IC50 ratio PbCDPK1/PfCDPK1 (PbCDPK1) | IC50 (PbCDPK1) [nM] | IC50 ratio (IC50 with 1 mM ATP/IC50 with 30 μM ATP) (PfCDPK1 [1]; Rh-ParM) | IC50 (PfCDPK1 [1]; [6]) [nM] | IC50 (PfCDPK1 [1]; [7]) [nM] | other results
1 | Fc1cccnc1Nc1ncc(-c2cnc3ccc(NC4CCC(N5CCNCC5)CC4)nn23)cn1 (stereo not shown) [Compound 46] | 13 | 0.8 | 11 | 2.8 | 38 |  |  |  | 
2 | CC(=O)Nc1cccc(-c2cnc3ccc(NCCc4cccnc4)nn23)c1 [Compound 11] |  |  |  |  |  | 28 | 49 | 1380 | IC50 ratio (ATP depletion/radiometric assay) (PfCDPK1 [2]): 3.0; IC50 (PfCDPK1 [2]): 22 nM; IC50 (PfCDPK1 [3]): 65 nM
3 | c1cncc(CCNc2ccc3ncc(-c4ccc5c(c4)OCO5)n3n2)c1 [Compound 50] |  |  |  |  |  |  |  |  | IC50 ratio (ATP depletion/radiometric assay) (PfCDPK1 [2]): 4.1; IC50 (PfCDPK1 [2]): 10 nM; IC50 (PfCDPK1 [3]): 41 nM
4 | c1ccc(-n2cc(-c3cnc4ccc(NC5CCNCC5)nn34)cn2)cc1 [Compound 44] | 107 | 0.6 | 59 | 4.3 | 463 |  |  |  | 
5 | CC(C)CNc1ncc(-c2cnc3ccc(NC4CCC(N)CC4)nn23)cn1 (stereo not shown) [Compound 29] | 86 | 0.9 | 80 | 4.6 | 392 |  |  |  | 
6 | CC(C)CCNc1cc(-c2cnc3ccc(NC4CCN(C)CC4)nn23)ccn1 [Compound 27] | 138 | 0.5 | 68 | 3.5 | 479 |  |  |  | 
7 | COc1ccc(-n2ccnc(SCC(=O)Nc3ccc(C)cc3C)c2=O)cc1 [Compound 24] |  |  |  |  |  | >3 | 31200 | > 100000 | 
8 | CC(C)CCNc1ncc(-c2cnn3ccc(NC4CCN(C)C4)nc23)cn1 (stereo not shown) [Compound 42] | 109 | 0.9 | 99 | 3.2 | 350 |  |  |  | 
9 | CN1CCC(Nc2ccc3ncc(-c4ccc(Nc5ncccc5F)cc4)n3n2)CC1 [Compound 3] |  |  |  |  |  |  |  |  | mlogD [4]: 3.2; IC50 (PvCDPK1; n = 3): < 10 nM
10 | COc1ccc(NC(=O)CSc2nccn(-c3ccc(OC)cc3)c2=O)cc1 [Compound 23] |  |  |  |  |  | >3 | 39800 | > 100000 | 
11 | C[C@@H]1CC[C@H]2[C@@H](C)C(=O)O[C@@H]3O[C@@]4(C)CC[C@@H]1[C@]32OO4 [artemisinin, reference compound] |  |  |  |  |  |  |  |  | EC50 (P. falciparum 3D7): 13 nM
12 | CN(C(=O)c1cc(COc2ccc(-n3ccnc3)cc2)on1)C1CCCCC1 [Compound 20] |  |  |  |  |  | 44 | 728 | 31700 | 
13 | N#Cc1cccc(-c2cnn3ccc(NCCc4cccnc4)nc23)c1 [Compound 13] |  |  |  |  |  | 17 | 212 | 3580 | 
14 | COc1ccc2ncc(-c3ccc(C(=O)NCc4ccccc4)cc3)n2n1 [Compound 12] |  |  |  |  |  | 37 | 107 | 3910 | IC50 ratio (ATP depletion/radiometric assay) (PfCDPK1 [2]): 5.9; IC50 (PfCDPK1 [2]): 34 nM; IC50 (PfCDPK1 [3]): 200 nM
15 | CN(C(=O)c1cc(COc2ccc(-n3cncn3)cc2)on1)C1CCCCC1 [Compound 19] |  |  |  |  |  | 336 | 72 | 24200 | 
